From PubChem BioAssay (NCI)
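Method: 48-hour compound exposure of cells in 96-well plates, five concentrations, linear interpolation of endpoints. TGI denotes the concentration required for complete inhibition of growth.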

How the values were obtained:
Experiment in all cases: DTP human tumour cell line panel, 48 h
OVCAR-3 ovarian = tested on: OVCAR-3 ovarian
HCT-15 colon = tested on: HCT-15 colon
NCI/ADR-RES ovarian = tested on: NCI/ADR-RES ovarian
UACC-62 melanoma = tested on: UACC-62 melanoma
HT29 colon = tested on: HT29 colon
OVCAR-8 ovarian = tested on: OVCAR-8 ovarian
COLO 205 colon = tested on: COLO 205 colon
MDA-MB-435 = tested on: MDA-MB-435
T-47D breast = tested on: T-47D breast
A549 NSCLC = tested on: A549 NSCLC
IGROV1 ovarian = tested on: IGROV1 ovarian
CAKI-1 renal = tested on: CAKI-1 renal
SF-295 CNS = tested on: SF-295 CNS
MDA-MB-231 breast = tested on: MDA-MB-231 breast
SK-MEL-5 melanoma = tested on: SK-MEL-5 melanoma
HOP-62 NSCLC = tested on: HOP-62 NSCLC
SR leukemia = tested on: SR leukemia
M14 melanoma = tested on: M14 melanoma
MDA-N = tested on: MDA-N
SNB-19 CNS = tested on: SNB-19 CNS
SK-MEL-28 melanoma = tested on: SK-MEL-28 melanoma
SNB-75 CNS = tested on: SNB-75 CNS
UACC-257 melanoma = tested on: UACC-257 melanoma
NCI-H460 lung = tested on: NCI-H460 lung
SN12C renal = tested on: SN12C renal
SF-539 CNS = tested on: SF-539 CNS
MOLT-4 leukemia = tested on: MOLT-4 leukemia
HOP-92 NSCLC = tested on: HOP-92 NSCLC
TK-10 renal = tested on: TK-10 renal
NCI-H522 lung = tested on: NCI-H522 lung
PC-3 prostate = tested on: PC-3 prostate
RXF 393 renal = tested on: RXF 393 renal
KM12 colon = tested on: KM12 colon
ACHN renal = tested on: ACHN renal
HCC-2998 colon = tested on: HCC-2998 colon
SK-MEL-2 melanoma = tested on: SK-MEL-2 melanoma
EKVX NSCLC = tested on: EKVX NSCLC
SW-620 colon = tested on: SW-620 colon
HS 578T breast = tested on: HS 578T breast
DU-145 prostate = tested on: DU-145 prostate
RPMI-8226 leukemia = tested on: RPMI-8226 leukemia
NCI-H23 lung = tested on: NCI-H23 lung
HCT-116 colon = tested on: HCT-116 colon
U251 CNS = tested on: U251 CNS
OVCAR-5 ovarian = tested on: OVCAR-5 ovarian
MALME-3M melanoma = tested on: MALME-3M melanoma
SK-OV-3 ovarian = tested on: SK-OV-3 ovarian
MCF7 breast = tested on: MCF7 breast
OVCAR-4 ovarian = tested on: OVCAR-4 ovarian
UO-31 renal = tested on: UO-31 renal
NCI-H226 lung = tested on: NCI-H226 lung
BT-549 breast = tested on: BT-549 breast
SF-268 CNS = tested on: SF-268 CNS
HL-60(TB) leukemia = tested on: HL-60(TB) leukemia
786-0 renal = tested on: 786-0 renal
K-562 leukemia = tested on: K-562 leukemia
LOX IMVI melanoma = tested on: LOX IMVI melanoma
CCRF-CEM leukemia = tested on: CCRF-CEM leukemia

`COc1cc(/C=C2\C[C@H]3[C@@H]4CC=C5C[C@@H](OC(C)=O)CC[C@]5(C)[C@H]4CC[C@]3(C)\C2=N\O)cc(OC)c1OC` was tested, and the TGI (OVCAR-3 ovarian) was over 100 µM, the TGI (HCT-15 colon) was over 100 µM and the TGI (NCI/ADR-RES ovarian) was over 88.9 µM. For the same compound, the TGI (UACC-62 melanoma) was 45.6 µM, the TGI (HT29 colon) was over 68.4 µM and the TGI (OVCAR-8 ovarian) was over 100 µM. It also gave a TGI (COLO 205 colon) of 17.8 µM, a TGI (MDA-MB-435) of over 91.3 µM and a TGI (T-47D breast) of 5.22 µM. It also gave a TGI (A549 NSCLC) of over 100 µM, a TGI (IGROV1 ovarian) of over 100 µM and a TGI (CAKI-1 renal) of over 60.2 µM. For the same compound, the TGI (SF-295 CNS) was 13 µM, the TGI (MDA-MB-231 breast) was over 100 µM and the TGI (SK-MEL-5 melanoma) was 14.7 µM. It also gave a TGI (HOP-62 NSCLC) of over 100 µM, a TGI (SR leukemia) of 14.8 µM and a TGI (M14 melanoma) of over 100 µM. It also gave a TGI (MDA-N) of over 100 µM, a TGI (SNB-19 CNS) of over 100 µM and a TGI (SK-MEL-28 melanoma) of over 72.1 µM. It also gave a TGI (SNB-75 CNS) of over 43.3 µM, a TGI (UACC-257 melanoma) of over 100 µM and a TGI (NCI-H460 lung) of over 100 µM. It also gave a TGI (SN12C renal) of over 100 µM, a TGI (SF-539 CNS) of over 92.4 µM and a TGI (MOLT-4 leukemia) of over 25.5 µM. The TGI (HOP-92 NSCLC) was 9.43 µM, the TGI (TK-10 renal) was over 100 µM and the TGI (NCI-H522 lung) was over 49.8 µM. It also gave a TGI (PC-3 prostate) of 18.6 µM, a TGI (RXF 393 renal) of 4.28 µM and a TGI (KM12 colon) of over 100 µM. For the same compound, the TGI (ACHN renal) was over 32.8 µM, the TGI (HCC-2998 colon) was over 100 µM and the TGI (SK-MEL-2 melanoma) was 76.6 µM. It also gave a TGI (EKVX NSCLC) of over 81.9 µM, a TGI (SW-620 colon) of over 100 µM and a TGI (HS 578T breast) of over 100 µM. The TGI (DU-145 prostate) was over 100 µM, the TGI (RPMI-8226 leukemia) was 3.08 µM and the TGI (NCI-H23 lung) was over 100 µM. It also gave a TGI (HCT-116 colon) of over 100 µM, a TGI (U251 CNS) of over 86.3 µM and a TGI (OVCAR-5 ovarian) of over 100 µM. It also gave a TGI (MALME-3M melanoma) of over 60.9 µM, a TGI (SK-OV-3 ovarian) of over 100 µM and a TGI (MCF7 breast) of over 100 µM. For the same compound, the TGI (OVCAR-4 ovarian) was over 83.7 µM, the TGI (UO-31 renal) was 95 µM and the TGI (NCI-H226 lung) was over 100 µM. For the same compound, the TGI (BT-549 breast) was over 90.8 µM, the TGI (SF-268 CNS) was over 100 µM and the TGI (HL-60(TB) leukemia) was 15.8 µM. It also gave a TGI (786-0 renal) of over 43.3 µM, a TGI (K-562 leukemia) of over 100 µM and a TGI (LOX IMVI melanoma) of 38.4 µM. For the same compound, the TGI (CCRF-CEM leukemia) was over 30.6 µM.
